Data published in patent publication US7553496B2, “VEGF-A as an inhibitor of angiogenesis and methods of using same” (University of Kentucky Research Foundation, priority 2004, dated 2009).
Entries after “also recorded” stand apart in the source; their conditions may differ.

What was measured:
laser-induced CNV = assay: Laser-induced choroidal neovascularization (CNV) volume, confocal microscopy; type: in vivo, mouse; conditions: for effect on VEGF-A-induced suppression of CNV: given with VEGF-A164 after laser injury
[1] = system: choroidal endothelial cells (CEC); assay: Cell cycle distribution of CEC after laser injury (flow cytometry, propidium iodide); conditions: mouse, in vivo
Protocol: Flow cytometry. Single cell suspensions isolated from mouse RPE/choroids via collagenase D (20 U/ml; Roche Diagnostics) treatment were incubated in Fc block (0.5 mg/ml; BD Pharmingen) for 15 min on ice. Rabbit antibody to mouse VEGFR-1 (1:250; Santa Cruz) coupled with Cy5-donkey antibody to rabbit IgG Ab (1:250) and Phycoerythrin-conjugated rat antibody to mouse VEGFR-2 (1:250; eBioscience) were used to quantitate cell surface receptor expression. Macrophages defined as F4/80^+CD11c^− cells, were gated by rat antibody to mouse Cy5-F4/80 (1:30; Serotec) and hamster antibody to mouse FITC-CD11c (1:100; Serotec), CEC by FITC-conjugated rat antibody to mouse CD31 (1:250; BD Biosciences), and RPE cells by FITC-conjugated mouse antibody to human pan-cytokeratin (1:250; Sigma-Aldrich) staining following fixation with 4% paraformaldehyde and permeabilization with 1% Triton X-100 (Sigma Aldrich) and subjected to FACS analysis (FACSCalibur, BD Biosciences). DNA content was analyzed following incubation with propidium iodide (0.05 mg/ml; Molecular Probes) containing 0.1% Triton X-100 and RNase A (0.1 mg/ml; Roche).

Ccl-2 = Ccl-2 levels in RPE and choroid after laser injury (ELISA); type: in vivo, mouse
choroidal macrophages = assay: Choroidal macrophage recruitment after laser injury (flow cytometry); type: in vivo, mouse
Protocol: Drug treatments. VEGF-A164 (4-12 ng), VEGF-A120 (2.7-27 ng), PLGF-1 (12.5-1,250 ng), mouse PLGF-2 (165-1,650 ng), mouse Ccl-2 (0.55 ng), neutralizing goat antibodies to mouse VEGF-A (5-20 ng), mouse VEGFR-1 (6-18 μg), mouse VEGFR-2 (25-250 ng), or rat NP-1 (200-500 ng; all R&D Systems), recombinant human SPARC (100-300 ng; purified in the laboratory of E. H. Sage) or neutralizing mouse antibody to human SPARC (4-12 μg; purified in the laboratory R. W. Brekken, University of Texas), neutralizing rabbit antibody to rat NP-2 (200-500 ng; gifts of D. D. Ginty, Johns Hopkins University and S. Niclou, Netherlands Institute for Brain Research (Shearer, M. C. et al. The astrocyte/meningeal cell interface is a barrier to neurite outgrowth which can be overcome by manipulation of inhibitory molecules or axonal signalling pathways. […]
Flow cytometry. […] Rabbit antibody to mouse VEGFR-1 (1:250; Santa Cruz) coupled with Cy5-donkey antibody to rabbit IgG Ab (1:250) and Phycoerythrin-conjugated rat antibody to mouse VEGFR-2 (1:250; eBioscience) were used to quantitate cell surface receptor expression. […] DNA content was analyzed following incubation with propidium iodide (0.05 mg/ml; Molecular Probes) containing 0.1% Triton X-100 and RNase A (0.1 mg/ml; Roche).

[2] = system: bone marrow derived endothelial cells (BMDECs); assay: Bone marrow derived endothelial cell incorporation in GFP chimeric mice (flow cytometry); type: in vivo, mouse; conditions: 0.55 ng
From the text: We tested the effect of VEGF-A164 injection one day after laser injury in GFP chimeric mice 8 weeks following bone marrow transplantation in mice with engraftment exceeding 90%. In the RPE/choroid, GFP^+ cells were identified only at the site of laser injury and the immediate vicinity (data not shown). The bulk (>60%) of GFP^+ cells in the RPE/choroid following injury expressed either CD11b or F4/80, markers of monocytic lineage, while nearly all (>95%) CD11b^+ and F4/80^+ cells expressed GFP. […] The vast majority (>90%) of GFP^+CD31^+ cells, both in PBS- and VEGF-A164-treated eyes, also expressed CD11b or F4/80.
Flow cytometry. Single cell suspensions isolated from mouse RPE/choroids via collagenase D (20 U/ml; Roche Diagnostics) treatment were incubated in Fc block (0.5 mg/ml; BD Pharmingen) for 15 min on ice. Rabbit antibody to mouse VEGFR-1 (1:250; Santa Cruz) coupled with Cy5-donkey antibody to rabbit IgG Ab (1:250) and Phycoerythrin-conjugated rat antibody to mouse VEGFR-2 (1:250; eBioscience) were used to quantitate cell surface receptor expression. […] DNA content was analyzed following incubation with propidium iodide (0.05 mg/ml; Molecular Probes) containing 0.1% Triton X-100 and RNase A (0.1 mg/ml; Roche).

[3] = system: platelet derived growth factor receptor (PDGFR); conditions: cited from earlier work
flt3 = conditions: read-out: IC50 flt3; cited from earlier work
c-kit = c-kit (Homo sapiens, UniProt P10721); conditions: cited from earlier work
Sequence of c-kit (P10721 26-976): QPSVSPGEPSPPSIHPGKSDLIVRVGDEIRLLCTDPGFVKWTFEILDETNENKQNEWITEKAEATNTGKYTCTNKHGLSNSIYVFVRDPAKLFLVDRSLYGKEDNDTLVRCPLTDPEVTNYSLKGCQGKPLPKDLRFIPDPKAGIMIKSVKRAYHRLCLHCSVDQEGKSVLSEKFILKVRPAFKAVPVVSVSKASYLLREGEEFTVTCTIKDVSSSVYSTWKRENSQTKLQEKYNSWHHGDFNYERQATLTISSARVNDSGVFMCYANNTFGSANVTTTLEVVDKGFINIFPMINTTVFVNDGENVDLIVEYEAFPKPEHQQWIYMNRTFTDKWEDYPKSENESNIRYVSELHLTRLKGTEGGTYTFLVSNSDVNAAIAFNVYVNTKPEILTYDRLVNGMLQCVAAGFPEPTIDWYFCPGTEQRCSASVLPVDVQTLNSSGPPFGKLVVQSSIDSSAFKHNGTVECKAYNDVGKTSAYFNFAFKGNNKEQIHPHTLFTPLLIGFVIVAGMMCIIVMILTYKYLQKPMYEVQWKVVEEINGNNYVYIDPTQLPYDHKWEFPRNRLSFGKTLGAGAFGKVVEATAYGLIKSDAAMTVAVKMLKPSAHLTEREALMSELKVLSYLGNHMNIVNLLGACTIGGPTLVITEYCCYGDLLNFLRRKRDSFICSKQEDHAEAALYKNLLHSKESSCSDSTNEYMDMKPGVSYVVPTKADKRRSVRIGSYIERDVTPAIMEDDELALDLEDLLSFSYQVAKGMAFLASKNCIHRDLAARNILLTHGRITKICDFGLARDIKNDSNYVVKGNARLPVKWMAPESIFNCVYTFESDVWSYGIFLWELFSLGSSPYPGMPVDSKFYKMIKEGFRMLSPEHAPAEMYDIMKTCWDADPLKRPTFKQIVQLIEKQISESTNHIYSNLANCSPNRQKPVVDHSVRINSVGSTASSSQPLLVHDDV

VEGF-A = conditions: mouse, in vivo
VEGFR-1 = VEGFR-1 (Homo sapiens, UniProt P17948); conditions: cited from earlier work
Sequence of VEGFR-1 (P17948 27-1338, species assumed): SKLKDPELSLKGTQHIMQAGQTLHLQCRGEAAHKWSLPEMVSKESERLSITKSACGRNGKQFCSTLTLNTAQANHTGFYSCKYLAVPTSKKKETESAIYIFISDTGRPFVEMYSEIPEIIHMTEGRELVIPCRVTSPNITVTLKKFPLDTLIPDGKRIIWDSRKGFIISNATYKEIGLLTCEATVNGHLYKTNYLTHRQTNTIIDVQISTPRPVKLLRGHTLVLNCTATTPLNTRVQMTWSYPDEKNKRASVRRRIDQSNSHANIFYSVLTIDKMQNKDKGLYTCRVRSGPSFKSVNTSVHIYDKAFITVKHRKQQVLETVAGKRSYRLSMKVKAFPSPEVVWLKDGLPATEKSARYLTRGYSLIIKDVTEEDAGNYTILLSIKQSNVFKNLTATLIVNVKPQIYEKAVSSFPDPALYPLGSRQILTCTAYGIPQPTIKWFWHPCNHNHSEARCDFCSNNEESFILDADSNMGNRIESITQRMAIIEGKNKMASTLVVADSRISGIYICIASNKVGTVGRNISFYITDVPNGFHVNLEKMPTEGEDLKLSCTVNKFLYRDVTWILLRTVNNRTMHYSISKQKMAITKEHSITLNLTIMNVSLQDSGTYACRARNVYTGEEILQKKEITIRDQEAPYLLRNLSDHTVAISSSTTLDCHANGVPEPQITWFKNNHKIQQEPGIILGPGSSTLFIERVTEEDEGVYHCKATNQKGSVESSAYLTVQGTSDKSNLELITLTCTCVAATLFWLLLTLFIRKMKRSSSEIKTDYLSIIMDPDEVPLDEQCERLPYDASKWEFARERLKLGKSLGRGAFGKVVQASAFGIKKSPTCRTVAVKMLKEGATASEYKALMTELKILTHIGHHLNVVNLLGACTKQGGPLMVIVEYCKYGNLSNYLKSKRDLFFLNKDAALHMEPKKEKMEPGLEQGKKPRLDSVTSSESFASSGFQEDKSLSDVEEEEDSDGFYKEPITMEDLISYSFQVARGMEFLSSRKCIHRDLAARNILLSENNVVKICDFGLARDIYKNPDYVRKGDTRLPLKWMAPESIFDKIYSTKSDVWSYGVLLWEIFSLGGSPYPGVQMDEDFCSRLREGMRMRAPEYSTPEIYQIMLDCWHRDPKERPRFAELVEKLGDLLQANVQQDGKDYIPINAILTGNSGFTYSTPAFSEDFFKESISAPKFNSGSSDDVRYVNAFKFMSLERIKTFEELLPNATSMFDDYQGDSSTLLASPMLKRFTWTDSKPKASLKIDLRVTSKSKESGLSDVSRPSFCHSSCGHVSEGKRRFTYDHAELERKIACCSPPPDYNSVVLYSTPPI

[4] = agent alone, intravitreous, immediately or one day after laser injury, wild-type mice, vs PBS

Molecule: O.O.O.O.O.O.O.O.O.O=C([O-])[C@@H]1[O][Sb]2([O-])([O][Sb]34([OH])[O][C@H]([C@H](O)CO)[C@H]([O]3)[C@H](C(=O)[O-])[O]4)[O][C@H]([C@H](O)CO)[C@@H]1[O]2.[Na+].[Na+].[Na+] [sodium stibogluconate]
- effect on VEGF-A-induced suppression of CNV (laser-induced CNV): abolished

Molecule: Cc1[nH]c(/C=C2\C(=O)Nc3ccc(S(=O)(=O)Cc4c(Cl)cccc4Cl)cc32)c(C)c1C(=O)N1CCC[C@@H]1CN1CCCC1 [PHA665752]
- effect on VEGF-A-induced suppression of CNV (laser-induced CNV): Neither AG1295 (15 ng) nor PHA665752 (0.4 ng) blocked

Molecule: CC(C)c1cc(/C=C(\C#N)C(=O)NCCCc2ccccc2)cc(C(C)C)c1O [SU1498, (E)-3-(3,5-diisopropyl-4-hydroxyphenyl)-2-[(3-phenyl-n-propyl)amino-carbonyl]acrylonitrile]
- effect on VEGF-E-induced increase in CNV (laser-induced CNV; after laser injury): blocked

Molecule: FGF-2: basic fibroblast growth factor, another potent angiogenic cytokine
- volume of CNV (laser-induced CNV; [4]): did not evoke similar responses; also recorded: minor increases

Molecule: C=CC1=C(C)c2cc3[n-]c(cc4[n-]c(cc5nc(cc1n2)C(C)=C5C=C)c(C)c4CCC(=O)O)c(CCC(=O)O)c3C.[Zn+2] [ZnPP, zinc protoporphyrin IX]
- effect on VEGF-A-induced G0/G1 arrest of CEC [1]: reversed
- effect on VEGF-A-induced suppression of Ccl-2 (Ccl-2): abolished
- effect on VEGF-A-induced suppression of CNV (laser-induced CNV): abolished

Molecule: Cc1cc(C)c(C=C2C(=O)Nc3ccccc32)[nH]1 [SU5416, 3-((2,4-dimethylpyrrol-5-yl)methylidene]-indolin-2-one]
- effect on VEGF-A-induced suppression of Ccl-2 (Ccl-2): blocked
- effect on VEGF-A-induced suppression of monocyte recruitment (choroidal macrophages): blocked
- effect on VEGF-A-induced suppression of CNV (laser-induced CNV): blocked; also recorded: abrogates

Molecule: Ccl-2: exogenous recombinant Ccl-2, monocyte chemoattractant
- effect on CNV inhibited by VEGF-A antibody (laser-induced CNV; 0.55 ng): restored the CNV
- volume of CNV (laser-induced CNV; Ccl2−/− or Ccr2−/− mice): restores CNV
- volume of CNV (laser-induced CNV; Ccl2−/− or Ccr2−/− mice, listed as Recombinant Ccl-2): restored CNV
- effect on VEGF-A-induced suppression of CNV (laser-induced CNV): abrogates
- effect on VEGF-A-induced suppression of CNV (laser-induced CNV; listed as recombinant Ccl-2): abrogated
- effect on VEGF-A164 reduction in vasculogenesis [2]: abrogated
- effect on clodronate liposome reduction of BMDEC incorporation [2]: did not abrogate

Molecule: COC(=O)[C@@H](N)CCCNC(=N)N[N+](=O)[O-] [L-NAME, N^ω-nitro-L-arginine methyl ester]
- effect on VEGF-A-induced suppression of CNV (laser-induced CNV): did not reverse; also recorded: not affected

Molecule: Cc1cc2ncc(-c3ccccc3)nc2cc1C [AG1295, 6,7-dimethyl-2-phenylquinoxaline]
- IC50 [3]: 400 nM
- IC50 (flt3): 500 nM
- IC50 (c-kit): 1800 nM
- effect on VEGF-A-induced suppression of CNV (laser-induced CNV): Neither AG1295 (15 ng) nor PHA665752 (0.4 ng) blocked

Molecule: Cc1occc(=O)c1[O-].Cc1occc(=O)c1[O-].[O]=[V+2] [BMOV, bis(maltolato)oxovanadium(IV)]
- effect on VEGF-A-induced suppression of CNV (laser-induced CNV): abrogated

Molecule: [Cl-].[Cl-].[Co+2] [CoCl2]
- aggregate VEGF-A exposure (area under the curve) higher than after laser injury alone (VEGF-A): 52%
- peak VEGF-A in RPE and choroid relative to maximal level following laser injury alone (VEGF-A): less than double

Molecule: OB(O)c1cccc(NCc2cc(O)ccc2O)c1 [DBAPBA]
- effect on VEGF-A-induced suppression of Ccl-2 (Ccl-2): blocked
- IC50 (VEGFR-1): 40 µM
- effect on VEGF-A-induced suppression of monocyte recruitment (choroidal macrophages): blocked
- effect on VEGF-A-induced suppression of CNV (laser-induced CNV): blocked; also recorded: reversed by DBAPBA in a dose-dependent fashion

Molecule: OO [H2O2]
- volume of CNV (laser-induced CNV; [4]): decreased the volume of CNV; also recorded: inhibited

B1: SPARC: recombinant human SPARC, secreted protein, acidic, rich in cysteine (protein, UniProt P09486 18-303, looked up)
SPARC: APQQEALPDETEVVEETVAEVTEVSVGANPVQVEVGEFDDGAEETEEEVVAENPCQNHHCKHGKVCELDENNTPMCVCQDPTSCPAPIGEFEKVCSNDNKTFDSSCHFFATKCTLEGTKKGHKLHLDYIGPCKYIPPCLDSELTEFPLRMRDWLKNVLVTLYERDEDNNLLTEKQKLRVKKIHENEKRLEAGDHPVELLARDFEKNYNMYIFPVHWQFGQLDQHPIDGYLSHTELAPLRAPLIPMEHCTTRFFETCDLDNDKYIALDEWAGCFGIKQKDIDKDLVI
- inhibition of VEGFR-1 kinase activity (VEGFR-1; in vitro, literature): inhibits the kinase activity of VEGFR-1
- volume of CNV (laser-induced CNV; [4]): did not alter CNV
- effect on VEGF-A-induced suppression of CNV (laser-induced CNV): abolished
- effect on VEGF-A-induced suppression of CNV (laser-induced CNV; listed as recombinant human SPARC): dose-dependently abolished
